From ChEMBL document CHEMBL1201862, “PubChem BioAssay data set” (2004) come the findings set out here.

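Step 1: Grow cells in 96-well plates. Step 2: Expose to compound for 48 hours at 5 concentrations. Step 3: Interpolate endpoints linearly; if unreached, use highest concentration. Here, GI50 denotes the concentration required for 50% inhibition of growth.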 The source made the active and inactive calls. No stated cut-off is given here; in the data, active = GI50 up to about 1.1 µM and inactive = higher.

Broadly, the GI50 is the concentration giving 50% growth inhibition.

Holding throughout (experiment): DTP human tumour cell line panel, 48 h
In assay [1] the test system is IGROV-1.
Assay [2] concerns T47D.
The test system of assay [3] is KM12.
Assay [4] has as its system CAKI-1.
For assay [5], the system named is SF-295.
For assay [6], the system named is MDA-N.
For assay [7], the system named is HCT-116.
Assay [8] relates to UACC-257.
In assay [9] the test system is SR.
The test system of assay [10] is NCI-H522.
For assay [11], the system named is UO-31.
Assay [12] has as its system Hs-578T.
Assay [13] concerns HT-29.
For assay [14], the system named is SW-620.
Assay [15] has as its system MOLT-4.
The subject of assay [16] is COLO 205.
Assay [17] has as its system EKVX.
Assay [18] relates to TK-10.
Assay [19] deals with DU-145.
Assay [20] deals with NCI-H23.

Regarding `c1ccc(C[N+]23C(CC[C@H]2c2ccccc2)CC[C@H]3c2ccccc2)cc1` (stereo partly drawn), the GI50 in assay [1] is 21.6 µM (inactive); in assay [2] it was 8.47 µM (inactive); in assay [3], 21.8 µM (inactive); in assay [4] it was > 100 µM (inactive); in assay [5] it was 35.3 µM (inactive); in assay [6], 21.2 µM (inactive). The GI50 was 28.8 µM (inactive) in [7]; 6.24 µM (inactive) in assay [8]; 21.4 µM (inactive) in assay [9]; 18 µM (inactive) in [10]; > 100 µM (inactive) in assay [11]; 49.5 µM (inactive) in assay [12]. The GI50 was 17.9 µM (inactive) in [13]; 43.4 µM (inactive) in [14]; 27.9 µM (inactive) in assay [15]; 11.2 µM (inactive) in assay [16]; 24 µM (inactive) in [17]; 74.1 µM (inactive) in assay [18]. In addition, the GI50 in [19] is 32.9 µM (inactive).
With `C#CCn1c(=O)c(Cl)cn(/C(=C/C(=O)OCC)C(=O)OCC)c1=O`, the GI50 in assay [1] is 17.3 µM (inactive); in assay [2], 2.34 µM (inactive); in assay [3] it was 31.9 µM (inactive); in assay [4] it was 2.99 µM (inactive); in assay [5] it was > 47.5 µM (inactive); in [6] it was 15.3 µM (inactive). The GI50 in [7] is 4.69 µM (inactive); in [8], 5.07 µM (inactive); in [9], 2.32 µM (inactive); in [10] it was 3.38 µM (inactive); in assay [11], 3.4 µM (inactive); in [12], 42.9 µM (inactive). The GI50 is 18.4 µM (inactive) in [13]; 2.22 µM (inactive) in [14]; 2.28 µM (inactive) in assay [15]; 18.5 µM (inactive) in [20]; 1.04 µM (active) in assay [16]; 16.1 µM (inactive) in assay [17]. For the same compound, the results for the GI50 in assay [18] and in assay [19] were 2.43 µM (inactive) and 18.6 µM (inactive), respectively.
`CC1(C)C=C(S(=O)(=O)c2ccccc2)Oc2ccccc2O1`: the GI50 in [1] was 44.2 µM (inactive); in assay [2], 19.8 µM (inactive); in assay [3], 43.6 µM (inactive); in assay [4], 69.2 µM (inactive); in assay [5] it was 33 µM (inactive); in assay [6] it was 35.7 µM (inactive). Moreover, the GI50 in assay [7] is 29.5 µM (inactive); in [8], 38 µM (inactive); in [9] it was 41.9 µM (inactive); in assay [10], 40.9 µM (inactive); in assay [11], 20.7 µM (inactive); in assay [12], 64.9 µM (inactive). Also, the GI50 in assay [13] is 39.6 µM (inactive); in assay [14], 75.9 µM (inactive); in assay [15], 25.2 µM (inactive); in assay [20], 41.3 µM (inactive); in assay [16], 18.8 µM (inactive); in assay [17], 23.1 µM (inactive). The figures for the GI50 in assay [18] and in assay [19] were 6.7 µM (inactive) and 91 µM (inactive), respectively.
For `CCC1(O)C=CC(=O)C=C1`, the GI50 was 17.2 µM (inactive) in assay [1]; 22.7 µM (inactive) in assay [2]; 15 µM (inactive) in assay [3]; 31.4 µM (inactive) in assay [4]; 33.9 µM (inactive) in [5]; 28.8 µM (inactive) in assay [6]. The GI50 is 36.1 µM (inactive) in assay [7]; 18.8 µM (inactive) in [8]; 36.8 µM (inactive) in assay [9]; 10.3 µM (inactive) in assay [10]; 18.1 µM (inactive) in assay [11]; 66.5 µM (inactive) in assay [12]. In addition, the GI50 was 31.8 µM (inactive) in assay [13]; 36.7 µM (inactive) in assay [14]; 47.3 µM (inactive) in assay [15]; 24.9 µM (inactive) in assay [20]; 42.4 µM (inactive) in assay [16]; 55.1 µM (inactive) in [17]. Besides, the results for the GI50 in assay [18] and in assay [19] were 21.1 µM (inactive) and 23.9 µM (inactive), respectively.
On to `Clc1ccc(Cc2nc3ccccc3nc2-c2cccc(Br)c2)cc1`, for which the GI50 in [1] was 1.8 µM (inactive); in [2], 1.87 µM (inactive); in assay [3] it was 8.59 µM (inactive); in [4] it was 2.22 µM (inactive); in assay [5], 16.1 µM (inactive); in assay [6], 1.97 µM (inactive). In addition, the GI50 in [7] was 1.88 µM (inactive); in [8] it was 3.1 µM (inactive); in assay [9], 1.75 µM (inactive); in assay [10] it was 1.78 µM (inactive); in assay [11] it was 1.87 µM (inactive); in [12], 1.69 µM (inactive). For the same compound, the GI50 in assay [13] is 2.5 µM (inactive); in [14] it was 2.04 µM (inactive); in assay [15] it was 2.22 µM (inactive); in [20] it was 13.5 µM (inactive); in [16] it was 3.17 µM (inactive); in assay [17], 15.1 µM (inactive). Also, the GI50 in [18] is 13.7 µM (inactive); in assay [19], 10.7 µM (inactive).
Regarding `COc1cc(-c2cc(=O)c3c(OC)c(OC)c(OC)cc3o2)c(OC)c(OC)c1OC`, the GI50 in [1] was > 75 µM (inactive); in [2] it was 49.3 µM (inactive); in assay [3] it was > 75 µM (inactive); in [4], > 75 µM (inactive); in assay [5] it was > 75 µM (inactive); in [6], > 75 µM (inactive). In addition, the GI50 in assay [7] is > 75 µM (inactive); in assay [8] it was > 75 µM (inactive); in assay [9] it was 63.1 µM (inactive); in [10], > 75 µM (inactive); in assay [11] it was 57.3 µM (inactive); in [12], > 75 µM (inactive). Also, the GI50 in [13] was > 75 µM (inactive); in [14] it was > 75 µM (inactive); in assay [15], 40.2 µM (inactive); in assay [20] it was > 75 µM (inactive); in [16] it was > 75 µM (inactive); in assay [17], > 75 µM (inactive). Moreover, the GI50 in assay [18] and in [19] was > 75 µM (inactive) in each case.
For the compound `O=C(O)C1(Nc2ccc(Cl)cc2)CCCC1`, the GI50 was > 100 µM (inactive) in assay [1]; > 100 µM (inactive) in [2]; > 100 µM (inactive) in [3]; > 100 µM (inactive) in [4]; 97.9 µM (inactive) in assay [5]; > 100 µM (inactive) in assay [6]. The GI50 in assay [7] is 76.4 µM (inactive); in assay [9], > 100 µM (inactive); in assay [10], > 100 µM (inactive); in [11], > 100 µM (inactive); in assay [12] it was > 100 µM (inactive); in assay [13] it was > 100 µM (inactive). The GI50 was > 100 µM (inactive) in assay [14]; > 100 µM (inactive) in [20]; 33 µM (inactive) in assay [16]; > 100 µM (inactive) in assay [17]; > 100 µM (inactive) in [18]; > 100 µM (inactive) in assay [19].
Turning to `CCOC(=O)CNC(=O)C(CSCC1C(=O)Nc2ccccc21)NC(=O)CCC(N)C(=O)OCC` (stereo not drawn), the GI50 in assay [1] was 1.15 µM (inactive); in assay [2], 5.65 µM (inactive); in assay [3] it was 2.89 µM (inactive); in assay [4], 0.745 µM (active); in assay [5], 2.77 µM (inactive); in assay [6], 1.79 µM (inactive). The GI50 in assay [7] is 0.551 µM (active); in assay [8], 4.16 µM (inactive); in assay [9], 0.24 µM (active); in [10], 1.63 µM (inactive); in assay [11], 1.23 µM (inactive); in assay [12], 4.21 µM (inactive). Further, the GI50 in assay [13] was 1.55 µM (inactive); in [14] it was 1.19 µM (inactive); in assay [20], 2.26 µM (inactive); in assay [16] it was 1.24 µM (inactive); in assay [17], 1.75 µM (inactive); in assay [18], 1.62 µM (inactive). The GI50 in [19] is 3.75 µM (inactive).
With `O=C(Nc1ccccc1)c1cc(S(=O)(=O)N2CCNNC2=O)c(S)cc1Cl`, the GI50 in assay [1] was > 100 µM (inactive); in assay [2], 44.5 µM (inactive); in assay [3], > 100 µM (inactive); in assay [4] it was > 100 µM (inactive); in assay [5] it was > 100 µM (inactive); in assay [6] it was > 100 µM (inactive). In addition, the GI50 in [7] was 40.1 µM (inactive); in assay [8], > 100 µM (inactive); in [9], 95.3 µM (inactive); in [10], 24.7 µM (inactive); in [11], > 100 µM (inactive); in assay [12] it was > 100 µM (inactive). The GI50 in [14] was 33 µM (inactive); in assay [15], 71.6 µM (inactive); in [16] it was > 100 µM (inactive); in assay [17], > 100 µM (inactive); in assay [18], > 100 µM (inactive); in [19], 90.4 µM (inactive).
On to `CCN(CC)N1C(=O)[N-][N+](CC)(CC)C1=O`, for which the GI50 in [1], in [2], in assay [3], in assay [4], in [5] and in assay [6] was > 100 µM (inactive) each time. Further, the GI50 in [7], in [9], in assay [10], in assay [11], in assay [12] and in assay [13] was > 100 µM (inactive) throughout. In addition, the GI50 in assay [14] was > 100 µM (inactive); in assay [15] it was > 100 µM (inactive); in assay [20], > 100 µM (inactive); in assay [16] it was 71.1 µM (inactive); in [17], > 100 µM (inactive); in assay [18], > 100 µM (inactive). Also, in [19], the GI50 was > 100 µM (inactive).
